The values that follow come from patent US7335674B2, “Benzothiazole-4,7-diones and benzoxazole-4,7-diones with substituents in position 5 or 6 and method for production thereof” (Societe de Conseils de Recherches et d'Applications …, priority 2003, dated 2008).

For data set [1], the system named is Mia-Paca2 (human pancreas cancer cells). As to the kind of experiment: Antiproliferative activity, WST1 colorimetric test, Mia-PaCa2. It counts as cell-based. Conditions: MIA PaCa-2, Mia-Paca2, treated 96 hours, up to 10 μM, read-out: IC50 on the cell proliferation of the Mia-Paca2 lines. On the procedure:
(§1) iii) Characterization of the Antiproliferative Activity:
(§2) By way of example, the effect of a treatment on two human cell lines Mia-Paca2 and DU145 by the compounds of the examples described previously will be studied. The cell lines DU145 (human prostate cancer cells) and Mia-PaCa2 (human pancreas cancer cells) were acquired from the American Tissue Culture Collection (Rockville, Md., USA). The cells placed in 80 μl of Dulbecco's Modified Eagle's medium (Gibco-Brl, Cergy-Pontoise, France) completed with 10% foetal calf serum inactivated by heating (Gibco-Brl, Cergy-Pontoise, France), 50,000 units/l of penicillin and 50 mg/l of streptomycin (Gibco-Brl, 10378-057, Cergy-Pontoise, France), and 2 mM of glutamine (Gibco-Brl, Cergy-Pontoise, France) were seeded on a 96-well plate on day 0. The cells were treated on day 1 for 96 hours with increasing concentrations of each of the compounds to be tested up to 10 μM. At the end of this period, quantification of cell proliferation is evaluated by a colorimetric test based on the cleavage of the tetrazolium salt WST1 by the mitochondrial dehydrogenases in viable cells leading to the formation of formazan (Boehringer Mannheim, Meylan, France). These tests are carried out in duplicate with 8 determinations per concentration tested. For each compound to be tested, the values included in the linear part of the sigmoid were retained for a linear regression analysis and used to estimate the inhibitory concentration IC50. The products are solubilized in dimethylsulphoxide (DMSO) at 10^−2 M and finally used in culture with 0.1% DMSO.
(In general: Tetrazolium dyes change colour on reduction, which living cells bring about.)

Data set [2] concerns DU145 (human prostate cancer cells). As to the kind of experiment: Antiproliferative activity, WST1 colorimetric test, DU145. Conditions: DU-145, treated 96 hours, up to 10 μM, read-out: IC50 on the cell proliferation of the DU-145 lines. Format: cell-based. On the procedure:
as §1, §2

For the molecule `CN(C)CCNC1=CC(=O)c2sc(-c3ccc(F)cc3)nc2C1=O` [Example 4, 5-{[2-(dimethylamino)ethyl]amino}-2-(4-fluorophenyl)-1,3-benzothiazole4,7-dione], the IC50 in data set [1] and in data set [2] was at most 10 µM in each case.
What is called melting point is the temperature, or range, at which the solid turns liquid. Regarding `CN(C)CCNC1=CC(=O)c2nc(-c3cccc(Cl)c3)oc2C1=O` [Example 30, 2-(3-chlorophenyl)-6-{[2-(dimethylamino)ethyl]amino}-1,3-benzoxazole4,7-dione], the melting point lay within 174 to 175 °C. For the same molecule, the IC50 in data set [1] is at most 10 µM. For the same molecule, the IC50 in data set [2] was at most 10 µM.
`CN(C)CCNC1=CC(=O)c2nc(-c3cc(F)ccc3F)sc2C1=O` [Example 14, 2-(2,5-difluorophenyl)-6-{[2-(dimethylamino)ethyl]amino}-1,3-benzothiazole-4,7-dione]: the IC50 in data set [1] and in data set [2] was at most 10 µM in each case.
In the case of `O=C1C=C(NCCN2CCCC2)C(=O)c2oc(-c3cc(F)cc(F)c3)nc21` [Example 51, 2-(3,5-difluorophenyl)-6-[(2-pyrrolidin-1-ylethyl)amino]-1,3-benzoxazole-4,7-dione], the melting point lay within 163 to 164 °C. For the same molecule, in data set [1], the IC50 was at most 10 µM. Moreover, in data set [2], the IC50 was at most 10 µM.
As for `O=C1C=C(NCCN2CCCC2)C(=O)c2oc(-c3ccc(Br)cc3Cl)nc21` [Example 55, 2-(4-bromo-2-chlorophenyl)-6-[(2-pyrrolidin-1-ylethyl)amino]-1,3-benzoxazole-4,7-dione], the melting point was in the range of 153 to 154 °C. Besides, in data set [1], the IC50 was at most 10 µM. For the same molecule, in data set [2], the IC50 was at most 10 µM.
Molecule `O=C1C=C(NCCN2CCCC2)C(=O)c2oc(Cc3c(F)cccc3Cl)nc21` [Example 58, 2-(2-chloro-6-fluorobenzyl)-6-[(2-pyrrolidin-1-ylethyl)amino]-1,3-benzoxazole-4,7-dione] gave a melting point of 173 to 174 °C. For the same molecule, the IC50 in data set [1] is at most 10 µM. The IC50 in data set [2] is at most 10 µM.
Molecule `COc1ccc(-c2nc3c(o2)C(=O)C(NCCN(C)C)=CC3=O)cc1OC` [Example 41, 2-(3,4-dimethoxyphenyl)-6-{[2-(dimethylamino)ethyl]amino}-1,3-benzoxazole-4,7-dione] showed a melting point of 181 to 182 °C. The IC50 in data set [1] is at most 10 µM. The IC50 in data set [2] was at most 10 µM.
For `COc1ccc(-c2nc3c(o2)C(=O)C(NCCN2CCCC2)=CC3=O)cc1OC` [Example 57, 2-(3,4-dimethoxyphenyl)-6-[(2-pyrrolidin-1-ylethyl)amino]-1,3-benzoxazole-4,7-dione], the melting point was 198.5 to 199.5 °C. In addition, in data set [1], the IC50 was at most 10 µM. Moreover, the IC50 in data set [2] is at most 10 µM.
`CN(C)CCNC1=CC(=O)c2nc(Cc3c(F)cccc3Cl)oc2C1=O` [Example 43, 2-(2-chloro-6-fluorobenzyl)-6-{[2-(dimethylamino)ethyl]amino}-1,3-benzoxazole4,7-dione] showed a melting point of 178 to 179 °C. The IC50 in data set [1] is at most 10 µM. Moreover, in data set [2], the IC50 was at most 10 µM.
`CCCCCCc1nc2c(s1)C(=O)C(NCCN(C)C)=CC2=O` [Example 60, 6-{[2-(dimethylamino)ethyl]amino}-2-hexyl-1,3-benzothiazole-4,7-dione]: the IC50 in data set [1] and in data set [2] was at most 10 µM each time.
Consider `CN(C)CCNC1=CC(=O)c2nc(-c3ccc(-c4ccccc4)cc3)sc2C1=O` [Example 10, 2-(1,1′-biphenyl-4-yl)-6-{[2-(dimethylamino)ethyl]amino}-1,3-benzothiazole-4,7-dione], for which the melting point was in the range of 194 to 195 °C. Besides, the IC50 in data set [1] is at most 10 µM. For the same molecule, the IC50 in data set [2] is at most 10 µM.
In turn, `CN(C)CCNC1=CC(=O)c2nc(-c3cc(F)cc(F)c3)oc2C1=O` [Example 34, 2-(3,5-difluorophenyl)-6-{[2-(dimethylamino)ethyl]amino}-1,3-benzoxazole-4,7-dione] showed a melting point of 176 to 177 °C. In addition, the IC50 in data set [1] is at most 10 µM. Also, the IC50 in data set [2] was at most 10 µM.
On to `CN(C)CCNC1=CC(=O)c2nc(-c3ccc4ccccc4c3)sc2C1=O` [Example 13, 6-{[2-(dimethylamino)ethyl]amino}-2-(2-naphthyl)-1,3-benzothiazole-4,7-dione], for which the melting point fell in the range of 167 to 168 °C. Besides, the IC50 in data set [1] was at most 10 µM. Besides, the IC50 in data set [2] is at most 10 µM.
`CCc1ccc(-c2nc3c(o2)C(=O)C(NCCN(C)C)=CC3=O)cc1` [Example 38, 6-{[2-(dimethylamino)ethyl]amino}-2-(4-ethylphenyl)-1,3-benzoxazole-4,7-dione]: the melting point lay within 151 to 152 °C. Further, in data set [1], the IC50 is at most 10 µM. For the same molecule, the IC50 in data set [2] is at most 10 µM.
`CN(C)CCNC1=CC(=O)c2nc(Cc3cccc4ccccc34)oc2C1=O` [Example 44, 6-{[2-(dimethylamino)ethyl]amino}-2-(1-naphthylmethyl)-1,3-benzoxazole-4,7-dione] gave a melting point of 153 to 154 °C. The IC50 in data set [1] was at most 10 µM. In addition, in data set [2], the IC50 is at most 10 µM.
As to `COc1cc(-c2nc3c(o2)C(=O)C(NCCN2CCCC2)=CC3=O)cc(OC)c1OC` [Example 56, 6-[(2-pyrrolidin-1-ylethyl)amino]-2-(3,4,5-trimethoxyphenyl)-1,3-benzoxazole-4,7-dione], the IC50 in data set [1] and in data set [2] was at most 10 µM throughout.
In the case of `O=C1C=C(NCCN2CCCC2)C(=O)c2oc(-c3ccc(Br)cc3)nc21` [Example 48, 2-(4-bromophenyl)-6-[(2-pyrrolidin-1-ylethyl)amino]-1,3-benzoxazole-4,7-dione], the melting point was in the range of 165 to 166 °C. Further, in data set [1], the IC50 was at most 10 µM. Moreover, in data set [2], the IC50 is at most 10 µM.
As for `CN(C)CCNC1=CC(=O)c2sc(-c3cc(Cl)sc3Cl)nc2C1=O` [Example 2, 2-(2,5-dichlorothien-3-yl)-5-{1-[2-(dimethylamino)ethyl]amino}-1,3-benzothiazole-4,7-dione], the IC50 in data set [1] and in data set [2] was at most 10 µM in each case.
`CN(C)CCNC1=CC(=O)c2oc(-c3cc(F)c(F)c(F)c3)nc2C1=O` [Example 21, 5-{[2-(dimethylamino)ethyl]amino}-2-(3,4,5-trifluorophenyl)-1,3-benzoxazole4,7-dione]: the IC50 in data set [1] and in data set [2] was at most 10 µM in each case.
With `CN(C)CCNC1=CC(=O)c2nc(-c3cc(F)ccc3F)oc2C1=O` [Example 27, 2-(2,5-difluorophenyl)-6-{[2-(dimethylamino)ethyl]amino}-1,3-benzoxazole-4,7-dione], the IC50 in data set [1] and in data set [2] was at most 10 µM in each case.
In the case of `O=C1C(NCCN2CCCC2)=CC(=O)c2sc(-c3c(F)cccc3Cl)nc21` [Example 7, 2-(2-chloro-6-fluorophenyl)-5-[(2-pyrrolidin-1-ylethyl)amino]-1,3-benzothiazole-4,7-dione], the IC50 in data set [1] and in data set [2] was at most 10 µM throughout.
On to `CN(C)CCNC1=CC(=O)c2sc(-c3c(F)cccc3Cl)nc2C1=O` [Example 6, 2-(2-chloro-6-fluorophenyl)-5-{[2-(dimethylamino)ethyl]amino}-1,3-benzothiazole4,7-dione], for which the IC50 in data set [1] and in data set [2] was at most 10 µM each time.
As for `O=C1C(NCCN2CCCC2)=CC(=O)c2sc(-c3cc(Cl)sc3Cl)nc21` [Example 3, 2-(2,5-dichlorothien-3-yl)-5-[(2-pyrrolidin-1-ylethyl)amino]-1,3-benzothiazole-4,7-dione], the IC50 in data set [1] and in data set [2] was at most 10 µM each time.
As to `CCc1ccc(-c2nc3c(o2)C(=O)C(NCCN2CCCC2)=CC3=O)cc1` [Example 54, 2-(4-ethylphenyl)-6-[(2-pyrrolidin-1-ylethyl)amino]-1,3-benzoxazole-4,7-dione], the IC50 in data set [1] and in data set [2] was at most 10 µM throughout.
Take `CN(C)CCNC1=CC(=O)c2nc(-c3c(F)cccc3Cl)sc2C1=O` [Example 12, 2-(2-chloro-6fluorophenyl)-6-{[2-(dimethylamino)ethyl]amino}-1,3-benzothiazole-4,7-dione]: the IC50 in data set [1] and in data set [2] was at most 10 µM throughout.
For the molecule `CN(C)CCNC1=CC(=O)c2sc(-c3c(F)cccc3F)nc2C1=O` [Example 1, 2-(2,6-difluorophenyl)-5-{[2-(dimethylamino)ethyl]amino}-1,3-benzothiazole-4,7-dione], the IC50 in data set [1] and in data set [2] was at most 10 µM throughout.
Take `COc1cc(-c2nc3c(o2)C(=O)C(NCCN(C)C)=CC3=O)cc(OC)c1OC` [Example 40, 6-{[2-(dimethylamino)ethyl]amino}-2-(3,4,5-trimethoxyphenyl)-1,3-benzoxazole-4,7-dione]: the IC50 in data set [1] and in data set [2] was at most 10 µM each time.
`O=C1C(NCCN2CCCC2)=CC(=O)c2sc(-c3ccc(F)cc3)nc21` [Example 5, 2-(4-fluorophenyl)-5-[(2-pyrrolidin-1-ylethyl)amino]-1,3-benzothiazole-4,7-dione]: the IC50 in data set [1] and in data set [2] was at most 10 µM each time.
